{"source": "paper PMC7576618", "about": "(British Journal of Clinical Pharmacology, 2020)", "key": {"[1]": {"system": "MK‐801‐induced social recognition deficits in rats", "test": "MK-801-induced social recognition deficits", "conditions": "MGS0008 1, 3, 10 mg kg^-1 p.o., MK-801 0.2 mg kg^-1 i.p."}, "[2]": {"test": "MAD study: urinary excretion", "assay_type": "in vivo, human", "conditions": "urine, MAD Day 14; for CL renal: both, human, oral, CLr, mean (CV[%])"}, "[3]": {"target": "mGlu3 receptor", "conditions": "read-out: in vitro EC50 for mGlu3 receptor; authors' assay system; cited from earlier work"}, "[4]": {"system": "phencyclidine‐induced locomotor hyperactivity in rats", "test": "Phencyclidine-induced locomotor hyperactivity", "conditions": "MGS0008 1, 3, 10 mg kg^-1 p.o., phencyclidine 3 mg kg^-1 s.c."}, "[5]": {"test": "SAD study Part B: CSF pharmacokinetics of MGS0008 after 10 mg TS-134", "assay_type": "in vivo, human", "conditions": "10 mg TS‐134 under fed condition"}, "[6]": {"test": "SAD study: plasma pharmacokinetics after single oral TS-134", "assay_type": "in vivo, human", "conditions": "for AUC / Cmax / half-life / Tmax: both, human, plasma; for AUC: AUC0‐inf; for AUC / Cmax: mean (CV[%]); for Tmax: median"}, "[7]": {"system": "spontaneous locomotor activity in rats", "test": "Spontaneous locomotor activity", "conditions": "doses similar to those which block psychostimulants‐induced hyperlocomotion"}, "[8]": {"test": "SAD study: urinary excretion", "assay_type": "in vivo, human", "conditions": "for CL renal: both, human, oral"}, "[9]": {"test": "MAD study: plasma pharmacokinetics after multiple oral dose titration of TS-134", "assay_type": "in vivo, human", "conditions": "for AUC / half-life: both, human, plasma, oral, MAD Day 14, fed; for AUC: AUC0‐tau, mean (CV[%]); for half-life: t1/2, mean (CV[%])"}, "[10]": {"system": "methamphetamine‐induced locomotor hyperactivity in rats", "test": "Methamphetamine-induced locomotor hyperactivity", "conditions": "MGS0008 1, 3, 10 mg kg^-1 p.o., methamphetamine 1 mg kg^-1 s.c."}, "[11]": {"system": "memantine‐increased 2‐deoxy‐D‐glucose uptake in the prefrontal cortex", "test": "Memantine-induced 2-deoxy-D-glucose uptake in the prefrontal cortex", "conditions": "mice; MGS0008 0.3, 1, 3 mg kg^-1 s.c.; memantine 30 mg kg^-1 s.c."}, "[12]": {"conditions": "rats; cited from earlier work"}, "[13]": {"conditions": "oral, 5 mg, SAD Parts A and C, 5 mg fasted (n = 6)"}, "[14]": {"conditions": "oral, 10 mg, SAD Parts A and C, 10 mg fasted (n = 4)"}, "[15]": {"conditions": "oral, 10 mg, SAD Parts A and C, 10 mg fed (n = 3)"}, "[16]": {"conditions": "oral, 20 mg, SAD Parts A and C, 20 mg fasted (n = 3)"}, "[17]": {"conditions": "oral, 20 mg, SAD Parts A and C, 20 mg fed (n = 3)"}}, "note": "“And” between values parts separate entries of the source, which are not always exact repeats. Equal entries are not always repeated. “Also recorded” adds a separate entry of the source.", "data": [{"smiles": "N[C@]1(C(=O)O)[C@H]2[C@@H](C[C@@H]1F)[C@@H]2C(=O)O", "note": "[MGS0008, (1S,2S,3S,5R,6S)‐2‐amino‐3‐fluorobicyclo[3.1.0]hexane‐2,6‐dicarboxylic acid]", "values": [{"measurement": "effect on MK‐801‐induced impaired social memory", "setting": "[1]", "result": "significantly reversed"}, {"measurement": "CL renal", "setting": "[2]; 5 mg, 5 mg (n = 8)", "result": 85.2, "unit": "mL/min"}, {"measurement": "CL renal", "setting": "[2]; 10 mg, 10 mg (n = 8)", "result": 88.2, "unit": "mL/min"}, {"measurement": "CL renal", "setting": "[2]; 20 mg, 20 mg (n = 8)", "result": 103, "unit": "mL/min"}, {"measurement": "CL renal", "setting": "[2]; 40 mg, 40 mg (n = 8)", "result": 93.3, "unit": "mL/min"}, {"measurement": "CL renal", "setting": "[2]; 60 mg, 60 mg (n = 8)", "result": 78.7, "unit": "mL/min"}, {"measurement": "Fe (0–24), mean (CV[%])", "setting": "[2]; 5 mg (n = 8)", "result": "48.03 (36.10) %"}, {"measurement": "Fe (0–24), mean (CV[%])", "setting": "[2]; 10 mg (n = 8)", "result": "51.79 (24.95) %"}, {"measurement": "Fe (0–24), mean (CV[%])", "setting": "[2]; 20 mg (n = 8)", "result": "50.42 (20.58) %"}, {"measurement": "Fe (0–24), mean (CV[%])", "setting": "[2]; 40 mg (n = 8)", "result": "48.06 (13.48) %"}, {"measurement": "Fe (0–24), mean (CV[%])", "setting": "[2]; 60 mg (n = 8)", "result": "50.48 (24.14) %"}, {"measurement": "Fe (0–24), mean (CV[%])", "setting": "[2]; 80 mg Cohort 5 (n = 7)", "result": "43.69 (36.76) %"}, {"measurement": "Fe (0–24), mean (CV[%])", "setting": "[2]; 80 mg Cohort 6 (n = 6)", "result": "37.21 (35.47) %"}, {"measurement": "EC50", "setting": "[3]", "result": 45.4, "unit": "nM"}, {"measurement": "effect on phencyclidine‐induced locomotor hyperactivity", "setting": "[4]", "result": "significantly attenuated"}, {"measurement": "mean CSF Cmax (molar)", "setting": "[5]", "result": 6.12, "unit": "nM"}, {"measurement": "reduction of plasma AUC in the fed group (food effect)", "setting": "[6]; SAD, 10 and 20 mg TS‐134", "result": "≤ 25", "unit": "%"}, {"measurement": "reduction of plasma Cmax in the fed group (food effect)", "setting": "[6]; SAD, 10 and 20 mg TS‐134", "result": "up to 57%"}, {"measurement": "AUC", "setting": "[6]; [13]", "result": 278, "unit": "ng·h/mL"}, {"measurement": "Cmax", "setting": "[6]; [13]", "result": 25.9, "unit": "ng/mL"}, {"measurement": "half-life", "setting": "[6]; oral, 5 mg, t1/2, mean (CV[%]), SAD Parts A and C, 5 mg fasted (n = 6)", "result": 7.75, "unit": "h"}, {"measurement": "Tmax", "setting": "[6]; [13]", "result": 2, "unit": "h"}, {"measurement": "AUC", "setting": "[6]; [14]", "result": 535, "unit": "ng·h/mL"}, {"measurement": "AUC", "setting": "[6]; [15]", "result": 390, "unit": "ng·h/mL"}, {"measurement": "Cmax", "setting": "[6]; [14]", "result": 60.6, "unit": "ng/mL"}, {"measurement": "Cmax", "setting": "[6]; [15]", "result": 28.1, "unit": "ng/mL"}, {"measurement": "half-life", "setting": "[6]; oral, 10 mg, t1/2, mean (CV[%]), SAD Part B, 10 mg fed (n = 7)", "result": 8.49, "unit": "h"}, {"measurement": "half-life", "setting": "[6]; oral, 10 mg, t1/2, mean (CV[%]), SAD Parts A and C, 10 mg fasted (n = 4)", "result": 8.41, "unit": "h"}, {"measurement": "half-life", "setting": "[6]; oral, 10 mg, t1/2, mean (CV[%]), SAD Parts A and C, 10 mg fed (n = 3)", "result": 8.7, "unit": "h"}, {"measurement": "Tmax", "setting": "[6]; [14]", "result": 2, "unit": "h"}, {"measurement": "Tmax", "setting": "[6]; [15]", "result": 4, "unit": "h"}, {"measurement": "AUC", "setting": "[6]; [16]", "result": 840, "unit": "ng·h/mL"}, {"measurement": "AUC", "setting": "[6]; [17]", "result": 677, "unit": "ng·h/mL"}, {"measurement": "Cmax", "setting": "[6]; [16]", "result": 89.4, "unit": "ng/mL"}, {"measurement": "Cmax", "setting": "[6]; [17]", "result": 60.2, "unit": "ng/mL"}, {"measurement": "half-life", "setting": "[6]; oral, 20 mg, t1/2, mean (CV[%]), SAD Parts A and C, 20 mg fasted (n = 3)", "result": 6.96, "unit": "h"}, {"measurement": "half-life", "setting": "[6]; oral, 20 mg, t1/2, mean (CV[%]), SAD Parts A and C, 20 mg fed (n = 3)", "result": 6.91, "unit": "h"}, {"measurement": "Tmax", "setting": "[6]; [16]", "result": 3, "unit": "h"}, {"measurement": "Tmax", "setting": "[6]; [17]", "result": 2, "unit": "h"}, {"measurement": "half-life", "setting": "[6]; po, terminal half‐life (t1/2) in plasma, single and multiple oral administration of TS‐134 (SAD and MAD studies)", "result": "~10", "unit": "h"}, {"measurement": "plasma Cmax of MGS0008 relative to that of MGS0274", "setting": "[6]; molar ratio, SAD and MAD studies", "result": "approximately 6 fold"}, {"measurement": "plasma AUC of MGS0008 relative to that of MGS0274", "setting": "[6]; molar ratio, all treatment groups with or without food", "result": "approximately 30 fold"}, {"measurement": "effect on spontaneous locomotor activity", "setting": "[7]", "result": "significantly reduced"}, {"measurement": "urinary excretion rate, % of the administered doses", "setting": "[8]; SAD and MAD studies, dose range 5–80 mg", "result": "29.38 to 69.01% and 29.38–69.01%"}, {"measurement": "CL renal", "setting": "[8]; urine and plasma, renal clearance, range, SAD and MAD studies", "result": "70.6 to 103", "unit": "mL/min"}, {"measurement": "CL renal", "setting": "[8]; urine, 5 mg, CLr, mean (CV[%]), SAD Parts A and C, 5 mg fasted (n = 6)", "result": 101, "unit": "mL/min"}, {"measurement": "CL renal", "setting": "[8]; urine, 10 mg, CLr, mean (CV[%]), SAD Parts A and C, 10 mg fasted (n = 4)", "result": 89.8, "unit": "mL/min"}, {"measurement": "CL renal", "setting": "[8]; urine, 10 mg, CLr, mean (CV[%]), SAD Parts A and C, 10 mg fed (n = 3)", "result": 103, "unit": "mL/min"}, {"measurement": "CL renal", "setting": "[8]; urine, 20 mg, CLr, mean (CV[%]), SAD Parts A and C, 20 mg fasted (n = 3)", "result": 73.9, "unit": "mL/min"}, {"measurement": "CL renal", "setting": "[8]; urine, 20 mg, CLr, mean (CV[%]), SAD Parts A and C, 20 mg fed (n = 3)", "result": 70.6, "unit": "mL/min"}, {"measurement": "Fe (0–48), mean (CV[%])", "setting": "[8]; urine, SAD Part B, 10 mg fed (n = 7)", "result": "55.77 (15.99) %"}, {"measurement": "Fe (0–48), mean (CV[%])", "setting": "[8]; urine, SAD Parts A and C, 5 mg fasted (n = 6)", "result": "69.01 (10.23) %"}, {"measurement": "Fe (0–48), mean (CV[%])", "setting": "[8]; urine, SAD Parts A and C, 10 mg fasted (n = 4)", "result": "60.61 (36.10) %"}, {"measurement": "Fe (0–48), mean (CV[%])", "setting": "[8]; urine, SAD Parts A and C, 10 mg fed (n = 3)", "result": "49.65 (38.35) %"}, {"measurement": "Fe (0–48), mean (CV[%])", "setting": "[8]; urine, SAD Parts A and C, 20 mg fasted (n = 3)", "result": "38.55 (65.52) %"}, {"measurement": "Fe (0–48), mean (CV[%])", "setting": "[8]; urine, SAD Parts A and C, 20 mg fed (n = 3)", "result": "29.38 (52.53) %"}, {"measurement": "dose proportionality of steady‐state plasma Cmax and AUC", "setting": "[9]; MAD, 5–80 mg", "result": "increased dose proportionally; also recorded: dose proportional increases"}, {"measurement": "time for plasma trough concentrations to reach steady state", "setting": "[9]; after initiating multiple doses of target dose levels, data not shown", "result": "≤ 2", "unit": "days"}, {"measurement": "AUC", "setting": "[9]; 5 mg, 5 mg (n = 8)", "result": 233, "unit": "ng·h/mL"}, {"measurement": "half-life", "setting": "[9]; 5 mg, 5 mg (n = 8)", "result": 9.68, "unit": "h"}, {"measurement": "AUC", "setting": "[9]; 10 mg, 10 mg (n = 8)", "result": 475, "unit": "ng·h/mL"}, {"measurement": "half-life", "setting": "[9]; 10 mg, 10 mg (n = 8)", "result": 10.9, "unit": "h"}, {"measurement": "AUC", "setting": "[9]; 20 mg, 20 mg (n = 8)", "result": 817, "unit": "ng·h/mL"}, {"measurement": "half-life", "setting": "[9]; 20 mg, 20 mg (n = 8)", "result": 10.4, "unit": "h"}, {"measurement": "AUC", "setting": "[9]; 40 mg, 40 mg (n = 8)", "result": 1640, "unit": "ng·h/mL"}, {"measurement": "half-life", "setting": "[9]; 40 mg, 40 mg (n = 8)", "result": 10.3, "unit": "h"}, {"measurement": "AUC", "setting": "[9]; 60 mg, 60 mg (n = 8)", "result": 3100, "unit": "ng·h/mL"}, {"measurement": "half-life", "setting": "[9]; 60 mg, 60 mg (n = 8)", "result": 9.43, "unit": "h"}, {"measurement": "effect on methamphetamine‐induced locomotor hyperactivity", "setting": "[10]", "result": "significantly attenuated"}, {"measurement": "effect on memantine‐increased 2‐deoxy‐D‐glucose uptake (2‐DG6P) in the prefrontal cortex", "setting": "[11]", "result": "attenuated"}, {"measurement": "CSF‐to‐plasma AUC ratio", "setting": "[12]", "result": 2.8, "unit": "%"}, {"measurement": "presence in the cerebrospinal fluid (CSF) after oral administration of MGS0008", "setting": "[12]", "result": "detected"}]}]}
